Measured values taken from patent US7208496B2, “Substituted heterocyclic compounds” (CV Therapeutics, Inc., priority 2003, dated 2007).

System: Palmitoyl CoA oxidation in rat heart mitochondria
Assay: Palmitoyl CoA oxidation assay (mitochondrial assay, Example 16)
Assay type: biochemical
Conditions: 16 microM 1-C14 palmitoyl CoA, 15 min at 30° C., read-out: IC value, Palmitoyl CoA oxidation
Method: Rat heart mitochondria are isolated by the method of Nedergard and Cannon (Methods in Enzymol. 55, 3, 1979).
Palmitoyl CoA oxidation—The Palmityl CoA oxidation is carried out in a total volume of 100 micro liters containing the following agents: 110 mM KCl, 33 mM Tris buffer at pH 8, 2 mM KPi, 2 mM MgCl2, 0.1 mM EDTA, 14.7 microM defatted BSA, 0.5 mM malic acid, 13 mM carnitine, 1 mM ADP, 52 micrograms of mitochondrial protein, and 16 microM 1-C14 palmitoyl CoA (Sp. Activity 60 mCi/mmole; 20 microCi/ml, using 5 microliters per assay). The compounds of this invention are added in a DMSO solution at the following concentrations: 100 micro molar, 30 micro molar, and 3 micro molar. In each assay, a DMSO control is used. After 15 min at 30° C., the enzymatic reaction is centrifuged (20,000 g for 1 min), and 70 microliters of the supernatant is added to an activated reverse phase silicic acid column (approximately 0.5 ml of silicic acid). The column is eluted with 2 ml of water, and 0.5 ml of the eluent is used for scintillation counting to determine the amount of C^14 trapped as C^14 bicarbonate ion.

{(3S)-4-[(2R)-2-hydroxy-3-(2-methylbenzothiazol-5-yloxy)propyl]-3-methylpiperazinyl}-N-(9-ethylcarbazol-3-yl)carboxamide
IC50: 2.6 µM
